Source: US20220144775A1, “HYDRAZIDE COMPOUND AND KINASE INHIBITOR” (NISSAN CHEMICAL CORPORATION, priority 2019, published 2022)

Assays:
YAP = YAP phosphorylation inhibitory action in SKOV3 (HTRF); format: cell-based, human; settings: 10 μM, 1 hr, non-treatment 100%
Experimental: Human ovarian cancer cell line SKOV3 (manufactured by DS Pharma Biomedical Co., Ltd.) was precultured using a 15% FBS-containing McCoy's 5a medium (manufactured by Sigma-Aldrich) (single layer culture). The above-mentioned cells in the logarithmic growth phase were washed with PBS. A 0.25% (w/v) trypsin-1 mmol/L ethylenediaminetetraacetic acid (EDTA) solution (manufactured by FUJIFILM Wako Pure Chemical Corporation) was added and the adherent cells were incubated at 37° C. for 3 min and detached. The above-mentioned medium was added, and the cells were centrifuged and resuspended in the same medium.
According to the method of patent document 1 (WO 2014/017513), a composition of 10% FBS-containing DMEM medium (Phenol-red free, manufactured by FUJIFILM Wako Pure Chemical Corporation) containing 0.015% (w/v) deacylated gellan gum (KELCOGEL CG-LA, manufactured by SANSHO Co., Ltd.) was prepared using FCeM-series Preparation Kit (manufactured by FUJIFILM Wako Pure Chemical Corporation). Then, various cells prepared above were suspended in the above-mentioned medium composition (3D culture conditions) added with deacylated gellan gum or a medium without the addition (2D culture conditions), and seeded on a 50 μL/well (manufactured by Corning Incorporated, a 96 well flat bottom plate, #3585, 2D culture conditions) or 25 μL/well (manufactured by Corning Incorporated, 96 well low adhesion flat bottom plate, #3474) at 100000 cells/well. The plate was allowed to stand at 37° C. in a 5% CO2 incubator, and the compound of the present invention diluted with the medium at 2 or 6 times the final concentration, DMSO, or the medium alone was added to the plate 3 hr after the seeding at 50 μL/well (2D culture conditions) or 5 μL/well (3D culture conditions) to make the final concentration of each compound 10 μM. After culture at 37° C. in a 5% CO2 incubator for 1 hr, the supernatant was aspirated, supplemented Lysis buffer (1-fold concentration, manufactured by Cisbio, YAP-total kit or YAP phospho-S27 kit) (50 μL) was added under 2D culture conditions, and supplemented Lysys buffer (4-fold concentration) (10 μL) was added to the culture supernatant under 3D conditions, and the mixture was stirred by a plate shaker for 30 min. Thereafter, the plate was centrifuged, 16 μL of the supernatant was transferred to a 384-well white plate (Corning, #4512), and each antibody solution (pYAP d2 antibody or Total-YAP d2 antibody, and pYAP Cryptate antibody or Total-YAP Cryptate antibody) included in the kit was added at 4 μL/well in total, and the mixture was allowed to stand at room temperature overnight. As a blank control, pYAP Cryptate antibody or Total-YAP Cryptate antibody alone was added to cells free of stimulation with compound and the mixture was treated in the same manner. The next day, the wavelengths at 665 nm and 615′ nm were measured in the HTRF mode of EnVision (manufactured by PerkinElmer).
The obtained signal was calculated as follows. Ratio=signal (665 nm)/signal (615 nm)×10000, ΔR=Signal(Ratio)−Background fluorescence, and the relative phosphorylated YAP amount or total YAP amount for each compound when ΔR of the compound non-addition group (non-treatment) is 100% is shown in Tables 7 and 8 (2D culture), and Tables 9 and 10 (3D culture). From the results, it was shown that the compound of the present zo invention has a YAP phosphorylation inhibitory action under both 2D and 3D culture conditions.

[1] = system: mouse partial liver resection model; assay: Liver weight increase in mouse partial liver resection model; format: in vivo; settings: BALB/c mice; intraperitoneal, 4 times every 24 hr; about 30% of the liver removed; FIG. 2
Experimental: A partial liver resection model in which the mouse liver was partially resected was prepared as described below, and the liver weight increasing effect of the compound of the present invention was evaluated by comparing the liver weight immediately after the resection with the liver weight 3 days after the resection.
A 0.5 w/v % methylcellulose aqueous solution (0.5% MC, manufactured by FUJIFILM Wako Pure Chemical Corporation) and A-007 were evaluated. A-007 was suspended in 0.5% MC, and prepared at a final concentration of 1 mg/mL.
Mice, BALB/cAnNCrlCrlj, 5-week-old, male, were purchased from CHARLES RIVER LABORATORIES JAPAN. In terms of the 0.5% MC administration-control group, 0.5% MC 10 mL/kg was administered intraperitoneally once, and 24 hr later, the entire liver was isolated and the liver weight was measured (n=3). As used herein, the control group means a group without removal of the liver. […]
Immediately after the second administration, the abdomen was opened under isoflurane (manufactured by Intervet Co., Ltd.) anesthesia, and the root of liver lobe was ligated with a suture thread, and about 30% of the liver was finally removed by excising the tip of the ligated liver lobe. After that, the abdomen was closed, and 24 hr after the final administration, the entire liver was removed and the liver weight was measured (n=3). […]

SMILES | phosphorylated YAP amount (%) (YAP; 2D culture conditions) | total YAP amount (%) (YAP; 2D culture conditions) | phosphorylated YAP amount (%) (YAP; 3D culture conditions) | total YAP amount (%) (YAP; 3D culture conditions) | changes in the liver weight ratio [1]
CC/C(=N\NC(=O)C(C)Nc1cccnc1)c1ccc(O)c(C)c1O (stereo not drawn) [A-004, (E)-N′-(1-(2,4-dihydroxy-3-methylphenyl)propylidene)-2-(pyridin-3-ylamino)propanehydrazide] | 19% | 87% | 33% | 105% | 
CC/C(=N\NC(=O)C(C)Nc1cncc(F)c1)c1ccc(O)c(C)c1O (stereo not drawn) [A-007] | 16% | 91% | 21% | 96% | has an action of promoting a liver weight increase
